Source: patent US7696197B2, “Use of a phenothiazine derivative for preventing and/or treating hearing loss” (Societe de Conseils de Recherches et d'Applications …, priority 2004, dated 2010)

System: neuromast acoustic hair cells
Experiment: Ototoxicity induced by gentamicin in zebrafish, DASPEI staining of neuromast acoustic hair cells
Format: in vivo
Details: 24 hours, fish aged 5 days
Excerpt: Zebrafish display the sensory organs on the surface of their bodies, called neuromasts. In these fish, the neuromast acoustic hair cells can be stained with DASPEI and this staining reflects the number of acoustic hair cells. These acoustic hair cells are structurally and functionally similar to the internal acoustic hair cells of the human ear.
Damage to the internal acoustic hair cells is induced in zebrafish by gentamicin. In order to test the effect of compound (1) on the protection of the acoustic hair cells damaged by gentamicin, the compound (1) was administered as a co-treatment with gentamicin. The internal acoustic hair cells are then stained and quantified.
The study is undertaken on fish aged 5 days incubated with 1 μg/ml of gentamicin for 24 hours in the presence or in the absence of compound (1). Controls are carried out in parallel; single vehicle (1% DMSO; positive control). The fish treated with gentamicin are the negative controls.
DASPEI (2,4-dimethyl-aminostyryl-N-ethyl pyridinium iodide) staining is carried out in order to visualize the acoustic hair cells in vivo (n=5 per group). Morphometric analysis is used in order to quantify the staining signal of the acoustic hair cells. The signal for DASPEI staining of the positive controls was defined as 100%. […]

gentamicin
DASPEI staining signal of acoustic hair cells, % of the control signal (gentamicin 1 μg/ml alone (negative control)): 31.5±4.2%
loss of the acoustic hair cells following treatment with gentamicin (gentamicin 1 μg/ml alone): 68.5±4.9%
